Assay results reported in patent publication US20240174618A1, “SUBSTITUTED (2-HETEROARYLOXYPHENYL)SULFONATES, SALTS THEREOF AND THEIR USE AS HERBICIDAL AGENTS” (Bayer Aktiengesellschaft, priority 2021, published 2024).

What was measured:
Format in all cases: in vivo
Poa annua (POAAN) [1] = assay: A. Herbicidal pre-emergence efficacy, POAAN
Method in brief: (§1)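 Applied before emergence onto covering soil at rates of 1280 g/ha or less, using 600 L/ha spray water with 0.5% additive. Scoring: visual % efficacy after ~3 weeks, greenhouse.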

[2] = tested on: Abutilon theophrasti (ABUTH); assay: A. Herbicidal pre-emergence efficacy, ABUTH; conditions: scored visually after about 3 weeks vs untreated controls
Method in brief: as §1

Veronica persica (VERPE) [3] = assay: A. Herbicidal pre-emergence efficacy, VERPE
Method in brief: as §1

Kochia scoparia (KCHSC) [4] = assay: A. Herbicidal pre-emergence efficacy, KCHSC; conditions: pre-emergence
Method in brief: as §1

Lolium rigidum (LOLRI) = assay: A. Herbicidal pre-emergence efficacy, LOLRI; conditions: dosage 1280 g/ha
Method in brief: as §1

[5] = tested on: Alopecurus myosuroides (ALOMY); assay: A. Herbicidal pre-emergence efficacy, ALOMY; conditions: 1280 g/ha; scored visually after about 3 weeks vs untreated controls
From the text: Seeds of mono- and dicotyledonous weed plants were placed in plastic pots in sandy loam soil (doubly sown with one species each of mono- or dicotyledonous weed plants per pot) and covered with soil. The compounds of the invention, formulated in the form of wettable powders (WP) or as emulsion concentrates (EC), were then applied onto the surface of the covering soil as aqueous suspension or emulsion with addition of 0.5% additive at a water application rate of 600 liters per hectare (converted). After the treatment, the pots were placed in a greenhouse and kept under good growth conditions for the test plants. After about 3 weeks, the efficacy of the preparations was scored visually in comparison with untreated controls as percentages.
For example, • 100% efficacy=plants have died, • 0% efficacy=like untreated control plants.
Tables A1a to A12c below show the effects of selected compounds of the general formula (I) according to table 1 on various harmful plants at an application rate corresponding to 1280 g/ha or less, which were obtained by the experimental procedure mentioned above.

Stellaria media (STEME) [6] = assay: A. Herbicidal pre-emergence efficacy, STEME
Method in brief: as §1

[7] = tested on: Digitaria sanguinalis (DIGSA); assay: A. Herbicidal pre-emergence efficacy, DIGSA; conditions: scored visually after about 3 weeks vs untreated controls
Method in brief: as §1

Setaria viridis (SETVI) [8] = assay: B. Herbicidal post-emergence efficacy, SETVI
Description: (§2) Seeds of mono- and dicotyledonous weed plants were placed in plastic pots in sandy loam soil (doubly sown with in each case one species of mono- or dicotyledonous weed plants per pot), covered with soil and cultivated in a greenhouse under controlled growth conditions. 2 to 3 weeks after sowing, the test plants were treated at the one-leaf stage. The compounds of the invention, formulated in the form of wettable powders (WP) or as emulsion concentrates (EC), were applied onto the green parts of the plants as aqueous suspension or emulsion with addition of 0.5% additive at a water application rate of 600 liters per hectare (converted). After the test plants had been kept in the greenhouse under optimum growth conditions for about 3 weeks, the activity of the preparations was rated visually in comparison to untreated controls.
(§3) For example, • 100% efficacy=plants have died, • 0% efficacy=like untreated control plants
(§4) Tables B1a to B12c below show the effects of selected inventive compounds of the general formula (I) according to table 1 on various harmful plants at an application rate corresponding to 1280 g/ha or less, which were obtained by the experimental procedure mentioned above.

Poa annua (POAAN) [9] = assay: B. Herbicidal post-emergence efficacy, POAAN
Method in brief: (§5)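 Readout: visual % kill vs untreated, ~3 wk post-spray. Plants in sandy loam pots, treated at one-leaf stage; spray = WP/EC in water + 0.5% additive, 600 L/ha, dose ≤1280 g/ha.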

Setaria viridis (SETVI) [10] = assay: A. Herbicidal pre-emergence efficacy, SETVI
Method in brief: as §1

[11] = tested on: Amaranthus retroflexus (AMARE); assay: B. Herbicidal post-emergence efficacy, AMARE
Method in brief: as §5

Veronica persica (VERPE) [12] = assay: B. Herbicidal post-emergence efficacy, VERPE
Method in brief: as §5

[13] = tested on: Echinochloa crus-galli (ECHCG); assay: A. Herbicidal pre-emergence efficacy, ECHCG; conditions: 1280 g/ha; scored visually after about 3 weeks vs untreated controls
Method in brief: as §1

[14] = tested on: Digitaria sanguinalis (DIGSA); assay: B. Herbicidal post-emergence efficacy, DIGSA; conditions: rated visually after about 3 weeks
Method in brief: as §5

[15] = tested on: Echinochloa crus-galli (ECHCG); assay: B. Herbicidal post-emergence efficacy, ECHCG; conditions: rated visually after about 3 weeks
Method in brief: as §5

[16] = tested on: Matricaria inodora (MATIN); assay: B. Herbicidal post-emergence efficacy, MATIN
Description: as §2, §3, §4

[17] = tested on: Matricaria inodora (MATIN); assay: A. Herbicidal pre-emergence efficacy, MATIN
Method in brief: as §1

[18] = tested on: Abutilon theophrasti (ABUTH); assay: B. Herbicidal post-emergence efficacy, ABUTH; conditions: rated visually after about 3 weeks
Method in brief: as §5

Kochia scoparia (KCHSC) [19] = assay: B. Herbicidal post-emergence efficacy, KCHSC; conditions: for Post-emergence efficacy against KCHSC in %: rated visually after about 3 weeks
Method in brief: as §5

Stellaria media (STEME) [20] = assay: B. Herbicidal post-emergence efficacy, STEME
Method in brief: as §5

[21] = tested on: Amaranthus retroflexus (AMARE); assay: A. Herbicidal pre-emergence efficacy, AMARE
Method in brief: as §1

Structure (SMILES): O=S(=O)(CC1CC1(Cl)Cl)Oc1c(F)cccc1Oc1ncc(Cl)cn1 (stereo not drawn) [Example I-57]
- Pre-emergence efficacy against POAAN (Poa annua (POAAN) [1]; dosage 320 g/ha): 100%
- Pre-emergence efficacy against POAAN (Poa annua (POAAN) [1]; dosage 1280 g/ha): 100%
- Pre-emergence efficacy against ABUTH ([2]; 320 g/ha): 90%
- Pre-emergence efficacy against ABUTH ([2]; 1280 g/ha): 100%
- Pre-emergence efficacy against VERPE in % (Veronica persica (VERPE) [3]; 320 g/ha): 90%
- Pre-emergence efficacy against VERPE in % (Veronica persica (VERPE) [3]; 1280 g/ha): 100%
- Pre-emergence efficacy against KCHSC (Kochia scoparia (KCHSC) [4]; dosage 320 g/ha): 100%
- Pre-emergence efficacy against KCHSC (Kochia scoparia (KCHSC) [4]; dosage 1280 g/ha): 100%
- Pre-emergence efficacy against LOLRI (Lolium rigidum (LOLRI)): 100%
- Pre-emergence efficacy against ALOMY [5]: 100%
- Pre-emergence efficacy against STEME (Stellaria media (STEME) [6]; dosage 320 g/ha): 100%
- Pre-emergence efficacy against STEME (Stellaria media (STEME) [6]; dosage 1280 g/ha): 100%
- Pre-emergence efficacy against DIGSA ([7]; 80 g/ha): 90%
- Pre-emergence efficacy against DIGSA ([7]; 320 g/ha): 100%
- Pre-emergence efficacy against DIGSA ([7]; 1280 g/ha): 100%
- Post-emergence efficacy against SETVI (Setaria viridis (SETVI) [8]; 320 g/ha): 90%
- Post-emergence efficacy against SETVI (Setaria viridis (SETVI) [8]; 1280 g/ha): 90%
- Post-emergence efficacy against POAAN (Poa annua (POAAN) [9]; 320 g/ha): 90%
- Post-emergence efficacy against POAAN (Poa annua (POAAN) [9]; 1280 g/ha): 90%
- Pre-emergence efficacy against SETVI (Setaria viridis (SETVI) [10]; dosage 80 g/ha): 90%
- Pre-emergence efficacy against SETVI (Setaria viridis (SETVI) [10]; dosage 320 g/ha): 100%
- Pre-emergence efficacy against SETVI (Setaria viridis (SETVI) [10]; dosage 1280 g/ha): 100%
- Post-emergence efficacy against AMARE ([11]; 80 g/ha): 90%
- Post-emergence efficacy against AMARE ([11]; 320 g/ha): 90%
- Post-emergence efficacy against AMARE ([11]; 1280 g/ha): 90%
- Post-emergence efficacy against VERPE (Veronica persica (VERPE) [12]; 80 g/ha): 90%
- Post-emergence efficacy against VERPE (Veronica persica (VERPE) [12]; 1280 g/ha): 90%
- Pre-emergence efficacy against ECHCG [13]: 100%
- Post-emergence efficacy against DIGSA in % ([14]; 320 g/ha): 90%
- Post-emergence efficacy against DIGSA in % ([14]; 1280 g/ha): 90%
- Post-emergence efficacy against ECHCG in % ([15]; 320 g/ha): 90%
- Post-emergence efficacy against ECHCG in % ([15]; 1280 g/ha): 90%
- Post-emergence efficacy against MATIN ([16]; 320 g/ha): 90%
- Post-emergence efficacy against MATIN ([16]; 1280 g/ha): 90%
- Pre-emergence efficacy against MATIN ([17]; 320 g/ha, scored visually after about 3 weeks vs untreated controls): 90%
- Pre-emergence efficacy against MATIN ([17]; pre-emergence, dosage 1280 g/ha): 100%
- Post-emergence efficacy against ABUTH in % ([18]; 80 g/ha): 90%
- Post-emergence efficacy against ABUTH in % ([18]; 320 g/ha): 90%
- Post-emergence efficacy against ABUTH in % ([18]; 1280 g/ha): 90%
- Post-emergence efficacy against KCHSC in % (Kochia scoparia (KCHSC) [19]; 80 g/ha): 90%
- Post-emergence efficacy against KCHSC in % (Kochia scoparia (KCHSC) [19]; 320 g/ha): 90%
- Post-emergence efficacy against KCHSC (Kochia scoparia (KCHSC) [19]; 1280 g/ha): 90%
- Post-emergence efficacy against STEME (Stellaria media (STEME) [20]; 80 g/ha): 90%
- Post-emergence efficacy against STEME (Stellaria media (STEME) [20]; 320 g/ha): 90%
- Post-emergence efficacy against STEME (Stellaria media (STEME) [20]; 1280 g/ha): 90%
- Pre-emergence efficacy against AMARE in % ([21]; 80 g/ha): 100%
- Pre-emergence efficacy against AMARE in % ([21]; 320 g/ha): 100%
- Pre-emergence efficacy against AMARE in % ([21]; 1280 g/ha): 100%
